Experimental data reported in paper PMC11982291 (Communications Biology, 2025).

Legend:
[1] = molecular target: XRN1 (5’-3’ exoribonuclease 1) (Homo sapiens, UniProt Q8IZH2); test: SPR; format: binding
[2] = molecular target: T1, XRN2 (Homo sapiens, UniProt Q9H0D6); test: SPR; format: binding
T1 sequence (Q9H0D6 1-790): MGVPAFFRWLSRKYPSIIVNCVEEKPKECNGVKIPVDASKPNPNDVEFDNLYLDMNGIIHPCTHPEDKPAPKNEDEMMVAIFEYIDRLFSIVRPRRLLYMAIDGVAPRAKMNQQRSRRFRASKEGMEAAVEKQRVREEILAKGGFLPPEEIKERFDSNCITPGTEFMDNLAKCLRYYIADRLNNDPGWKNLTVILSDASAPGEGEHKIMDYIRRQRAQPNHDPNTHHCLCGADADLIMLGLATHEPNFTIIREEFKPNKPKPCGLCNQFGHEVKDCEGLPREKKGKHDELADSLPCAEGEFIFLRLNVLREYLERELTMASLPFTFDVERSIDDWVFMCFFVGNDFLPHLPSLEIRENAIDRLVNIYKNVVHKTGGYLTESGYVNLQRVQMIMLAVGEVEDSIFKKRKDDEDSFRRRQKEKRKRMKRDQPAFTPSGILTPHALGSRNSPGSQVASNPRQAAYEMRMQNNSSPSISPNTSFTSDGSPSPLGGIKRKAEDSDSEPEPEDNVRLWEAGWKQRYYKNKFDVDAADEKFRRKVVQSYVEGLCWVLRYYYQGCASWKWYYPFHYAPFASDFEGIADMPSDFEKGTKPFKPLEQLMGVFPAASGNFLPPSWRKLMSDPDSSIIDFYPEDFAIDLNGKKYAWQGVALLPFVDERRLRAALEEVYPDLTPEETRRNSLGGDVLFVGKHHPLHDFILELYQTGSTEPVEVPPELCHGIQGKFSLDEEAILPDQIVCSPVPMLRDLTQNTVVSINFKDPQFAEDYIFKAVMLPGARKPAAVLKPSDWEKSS

Chain of XRN1 (5’-3’ exoribonuclease 1) (Q8IZH2 1-1191): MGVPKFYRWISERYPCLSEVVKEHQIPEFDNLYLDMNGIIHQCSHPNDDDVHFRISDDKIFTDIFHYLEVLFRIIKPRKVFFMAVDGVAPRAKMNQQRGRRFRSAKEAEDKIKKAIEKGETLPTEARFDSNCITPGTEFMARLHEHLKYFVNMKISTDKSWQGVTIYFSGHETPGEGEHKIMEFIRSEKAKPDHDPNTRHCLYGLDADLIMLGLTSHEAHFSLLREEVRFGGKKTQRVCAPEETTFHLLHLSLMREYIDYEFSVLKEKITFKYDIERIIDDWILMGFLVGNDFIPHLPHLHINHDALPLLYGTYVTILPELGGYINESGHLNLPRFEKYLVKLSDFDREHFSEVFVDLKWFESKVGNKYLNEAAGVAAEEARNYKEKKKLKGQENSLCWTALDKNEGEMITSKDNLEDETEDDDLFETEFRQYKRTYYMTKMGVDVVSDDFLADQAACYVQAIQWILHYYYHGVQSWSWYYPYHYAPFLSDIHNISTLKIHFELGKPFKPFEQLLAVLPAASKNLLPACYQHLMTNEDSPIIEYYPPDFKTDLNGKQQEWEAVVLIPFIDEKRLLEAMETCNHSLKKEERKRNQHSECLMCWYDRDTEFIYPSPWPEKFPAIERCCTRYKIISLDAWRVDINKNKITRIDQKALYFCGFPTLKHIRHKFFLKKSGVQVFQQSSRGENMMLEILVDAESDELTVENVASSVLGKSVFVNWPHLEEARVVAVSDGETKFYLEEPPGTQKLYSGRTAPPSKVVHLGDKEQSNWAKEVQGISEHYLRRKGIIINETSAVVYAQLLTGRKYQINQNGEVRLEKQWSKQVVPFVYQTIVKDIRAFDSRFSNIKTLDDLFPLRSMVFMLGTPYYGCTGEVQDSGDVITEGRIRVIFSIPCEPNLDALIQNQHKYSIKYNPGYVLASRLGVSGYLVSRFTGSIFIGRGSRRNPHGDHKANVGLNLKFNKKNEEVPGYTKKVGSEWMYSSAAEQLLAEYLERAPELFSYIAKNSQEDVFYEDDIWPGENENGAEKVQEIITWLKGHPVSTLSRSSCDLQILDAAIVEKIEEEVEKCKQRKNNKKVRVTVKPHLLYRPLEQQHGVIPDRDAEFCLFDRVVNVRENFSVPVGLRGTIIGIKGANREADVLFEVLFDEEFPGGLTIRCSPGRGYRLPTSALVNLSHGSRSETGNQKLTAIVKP

Nc1ncnc2c1ncn2[C@@H]1O[C@H](COP(=O)(O)O)[C@@H](OP(=O)(O)O)[C@H]1O [pAp, adenosine-3’,5’-bisphosphate]
Kd [1]: 12 ± 1 nM
Kd [2]: 14 ± 4 nM
